The values below are quoted from earlier work in US6380201B1, “Methods of treating or ameliorating the symptoms of common cold or allergic rhinitis with serotonin 5-HT1F agonists” (Eli Lilly and Company, priority 1997, dated 2002).

In series [1] the target is T1, 5-HT1F receptor (Homo sapiens, UniProt P30939).
T1 sequence (P30939 1-366): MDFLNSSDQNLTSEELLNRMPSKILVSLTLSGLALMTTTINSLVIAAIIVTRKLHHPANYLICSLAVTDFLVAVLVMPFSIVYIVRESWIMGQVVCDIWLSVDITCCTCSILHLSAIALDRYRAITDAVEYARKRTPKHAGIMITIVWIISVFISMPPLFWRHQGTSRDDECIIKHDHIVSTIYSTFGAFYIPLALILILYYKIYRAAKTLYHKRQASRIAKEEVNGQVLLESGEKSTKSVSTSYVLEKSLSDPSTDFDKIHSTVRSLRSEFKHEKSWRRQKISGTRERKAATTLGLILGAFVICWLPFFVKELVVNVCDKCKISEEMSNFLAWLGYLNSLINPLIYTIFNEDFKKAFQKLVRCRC
Conditions: cited from earlier work.

Series [2] deals with human 5-HT1D receptor (Homo sapiens, UniProt P28221). Conditions: cited from earlier work.
Chain of human 5-HT1D receptor (P28221 whole entry): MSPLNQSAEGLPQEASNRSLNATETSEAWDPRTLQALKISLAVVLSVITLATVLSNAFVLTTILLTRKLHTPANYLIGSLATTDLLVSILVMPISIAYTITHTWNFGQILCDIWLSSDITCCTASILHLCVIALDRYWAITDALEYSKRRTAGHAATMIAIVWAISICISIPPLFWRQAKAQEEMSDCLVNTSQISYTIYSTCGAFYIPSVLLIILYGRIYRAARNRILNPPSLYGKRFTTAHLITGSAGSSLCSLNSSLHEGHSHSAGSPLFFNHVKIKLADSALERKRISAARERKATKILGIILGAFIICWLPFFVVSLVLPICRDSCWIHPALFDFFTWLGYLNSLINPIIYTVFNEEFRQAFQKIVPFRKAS

In the case of `NCCc1c[nH]c2ccc(C(N)=O)cc12` [5-carboxamidotryptamine], in series [1], the affinity entry is “low affinity”. For the molecule `CNS(=O)(=O)Cc1ccc2[nH]cc(CCN(C)C)c2c1` [Sumatriptan], the results for the affinity entry in series [2] and in series [1] were “high affinity” and “show affinity”, respectively.
